# Where two headings read alike, the source gives them in different places.
# Legend:
# α4β7 integrin = α4β7 integrin (Homo sapiens (Human), UniProt P13612+P26010); assay: Integrin Adhesion Assay: Protocol 4 (MAdCAM-coated plate, RPMI-8866 cells with stable LOF mutation of the ITGB1 gene); type: cell-based
# Procedure, shortened: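 RPMI-8866 cells with CRISPR/Cas9 knockout of ITGB1 (2×10^6/mL) were added to MAdCAM-coated wells with compound (1% DMSO) in HEPES/NaCl buffer with 1 mM MnCl2, 0.1 mM CaCl2 and 1% BSA, then incubated 1 h at 37 °C. After four washes, adherent cells were quantified by CellTiter-Glo luminescence. Percent inhibition versus DMSO and control compound was fitted to 4-parameter curves.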
# α4β1 integrin = α4β1 integrin (Homo sapiens (Human), UniProt P05556+P13612); assay: Integrin Adhesion Assay: Protocol 5 (VCAM-coated plate, RPMI-8866 cells with stable LOF mutation of the ITGB7 gene); type: cell-based
# Sequence of α4β1 integrin (P13612 34-1032): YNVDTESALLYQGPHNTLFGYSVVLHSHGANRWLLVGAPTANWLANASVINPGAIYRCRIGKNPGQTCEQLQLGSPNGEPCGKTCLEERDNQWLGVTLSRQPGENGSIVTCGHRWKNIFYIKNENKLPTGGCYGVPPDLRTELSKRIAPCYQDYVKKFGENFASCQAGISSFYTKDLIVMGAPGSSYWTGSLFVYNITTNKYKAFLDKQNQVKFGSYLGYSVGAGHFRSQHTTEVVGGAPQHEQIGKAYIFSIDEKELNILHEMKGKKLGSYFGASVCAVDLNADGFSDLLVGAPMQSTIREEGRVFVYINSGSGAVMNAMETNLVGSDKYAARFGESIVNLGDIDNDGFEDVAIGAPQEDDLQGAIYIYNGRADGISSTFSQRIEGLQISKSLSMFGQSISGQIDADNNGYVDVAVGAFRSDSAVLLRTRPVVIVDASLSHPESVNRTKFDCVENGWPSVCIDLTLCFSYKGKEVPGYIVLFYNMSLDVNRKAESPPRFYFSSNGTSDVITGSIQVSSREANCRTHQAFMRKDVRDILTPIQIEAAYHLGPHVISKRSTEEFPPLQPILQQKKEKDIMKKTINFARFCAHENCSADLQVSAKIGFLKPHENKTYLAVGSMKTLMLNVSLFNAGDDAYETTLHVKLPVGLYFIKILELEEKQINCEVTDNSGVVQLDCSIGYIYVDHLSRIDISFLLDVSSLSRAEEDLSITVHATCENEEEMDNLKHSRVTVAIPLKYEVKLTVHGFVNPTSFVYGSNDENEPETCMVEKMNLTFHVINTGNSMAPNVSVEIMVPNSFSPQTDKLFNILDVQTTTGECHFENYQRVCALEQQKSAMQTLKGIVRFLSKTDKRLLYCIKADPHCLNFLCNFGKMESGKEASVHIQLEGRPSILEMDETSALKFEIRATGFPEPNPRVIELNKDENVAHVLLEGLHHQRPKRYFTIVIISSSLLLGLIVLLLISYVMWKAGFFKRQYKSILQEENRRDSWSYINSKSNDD
# Sequence of α4β1 integrin (P05556 21-798): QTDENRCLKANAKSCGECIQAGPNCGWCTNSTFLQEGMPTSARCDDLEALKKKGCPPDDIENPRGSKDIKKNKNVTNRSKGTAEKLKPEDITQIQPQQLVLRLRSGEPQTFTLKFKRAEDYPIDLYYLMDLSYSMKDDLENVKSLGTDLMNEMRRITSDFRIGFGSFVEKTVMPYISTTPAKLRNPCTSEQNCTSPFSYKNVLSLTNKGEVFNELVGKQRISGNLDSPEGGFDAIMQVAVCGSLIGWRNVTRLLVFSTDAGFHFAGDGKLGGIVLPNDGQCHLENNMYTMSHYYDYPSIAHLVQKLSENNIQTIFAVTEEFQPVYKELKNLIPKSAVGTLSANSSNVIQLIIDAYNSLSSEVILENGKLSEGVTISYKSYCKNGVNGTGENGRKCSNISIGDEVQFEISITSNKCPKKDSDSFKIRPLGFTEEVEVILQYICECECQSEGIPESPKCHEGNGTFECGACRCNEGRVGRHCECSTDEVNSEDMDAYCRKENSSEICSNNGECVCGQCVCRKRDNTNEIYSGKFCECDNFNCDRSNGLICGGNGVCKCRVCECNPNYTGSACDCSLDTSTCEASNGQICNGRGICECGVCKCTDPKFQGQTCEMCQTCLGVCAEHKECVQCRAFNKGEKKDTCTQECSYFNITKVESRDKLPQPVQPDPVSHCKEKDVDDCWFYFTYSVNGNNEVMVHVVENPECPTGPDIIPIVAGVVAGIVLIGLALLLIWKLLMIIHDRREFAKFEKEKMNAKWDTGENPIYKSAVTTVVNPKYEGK
# Procedure, shortened: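 RPMI-8866 B cells with CRISPR/Cas9 ITGB7 knockout (clonal, verified by flow cytometry) adhered to VCAM-coated wells for 1 h at 37° C in HEPES/NaCl buffer with 1 mM MnCl2, 0.1 mM CaCl2, 1% BSA, 1% DMSO. Bound cells quantified by CellTiter-Glo luminescence after washing; % inhibition versus DMSO and control, 4-parameter fit.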
# [1] = Protocol 4, RPMI-8866 cells with LOF mutation of ITGB1, MAdCAM, read-out: Mean IC50 α4β7 KO
# [2] = Protocol 5, RPMI-8866 cells with LOF mutation of ITGB7, VCAM, read-out: Mean IC50 α4β1 KO
# [3] = RPMI-8866 cells with stable LOF mutation of the ITGB1 gene, read-out: Mean IC50 α4β7 KO^a
# [4] = RPMI-8866 cells with stable LOF mutation of the ITGB7 gene, read-out: Mean IC50 α4β1 KO^b
# Sequence of α4β7 integrin (P13612 34-1032): as the sequence (P13612 34-1032) above
# Sequence of α4β7 integrin (P26010 20-798): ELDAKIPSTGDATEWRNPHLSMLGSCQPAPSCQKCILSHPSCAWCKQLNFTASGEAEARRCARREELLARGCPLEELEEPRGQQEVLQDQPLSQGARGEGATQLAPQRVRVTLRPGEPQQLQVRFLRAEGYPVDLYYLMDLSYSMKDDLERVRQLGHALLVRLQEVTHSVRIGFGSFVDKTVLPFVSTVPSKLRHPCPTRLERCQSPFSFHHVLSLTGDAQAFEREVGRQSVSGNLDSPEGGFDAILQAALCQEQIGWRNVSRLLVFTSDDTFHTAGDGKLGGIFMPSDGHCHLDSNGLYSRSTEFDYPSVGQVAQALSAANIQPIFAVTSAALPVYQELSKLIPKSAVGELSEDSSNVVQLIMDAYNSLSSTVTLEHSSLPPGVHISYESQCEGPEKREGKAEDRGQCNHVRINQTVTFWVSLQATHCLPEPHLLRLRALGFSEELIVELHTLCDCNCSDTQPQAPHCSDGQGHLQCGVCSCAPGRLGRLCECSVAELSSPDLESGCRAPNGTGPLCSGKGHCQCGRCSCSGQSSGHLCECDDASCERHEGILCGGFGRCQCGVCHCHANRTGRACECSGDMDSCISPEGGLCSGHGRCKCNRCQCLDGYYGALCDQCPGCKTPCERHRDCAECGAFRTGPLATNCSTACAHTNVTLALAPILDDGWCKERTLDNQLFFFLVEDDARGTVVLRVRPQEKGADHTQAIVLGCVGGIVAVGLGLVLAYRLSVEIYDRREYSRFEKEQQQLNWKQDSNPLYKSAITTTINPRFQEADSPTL
SMILES,IC50 (α4β7 integrin; [1]),IC50 (α4β1 integrin; [2]),IC50 (α4β7 integrin; [3]),IC50 (α4β1 integrin; [4])
COC(=O)[C@H](Cc1cccc2c(-c3c(OC)ccc(CN4CCC(C)C(F)(F)CC4)c3OC)cccc12)NC(=O)C1(C(F)(F)F)CCN(CC(F)(F)F)CC1 (stereo partly shown) [Compound 779],< 10 nM,100 to 1000 nM,,
COc1ccc(CN2CCCC2)c(OC)c1-c1cccc2c(C[C@H](NC(=O)C3(C(F)(F)F)CCN(CC(F)(F)F)CC3)C(=O)O)cccc12 [Compound 782],< 10 nM,100 to 1000 nM,,
CC1(C(=O)N[C@@H](Cc2cccc3c(-c4ncc(CN5CCCCC5)c5ccccc45)cccc23)C(=O)O)CC2CCC(C1)N2CC(F)(F)F (stereo partly shown) [Compound 679],,,10 to 100 nM,> 1000 nM
COc1ccc(CN2CCC(F)(F)CC2)c(OC)c1-c1cccc2c(C[C@H](NC(=O)c3c(C)cc4cn(CC(F)(F)F)nc4c3F)C(=O)O)cccc12 [Compound 664],,,100 to 1000 nM,> 1000 nM
COc1cc(CCN2CCCCC2)ccc1-c1cccc2c(C[C@H](NC(=O)C3(C(F)(F)F)CCN(CC(F)(F)F)CC3)C(=O)O)cccc12 [Compound 963],< 10 nM,100 to 1000 nM,,
O=C(O)[C@H](Cc1cccc2c(-c3ncc(CN4CCCC(F)(F)CC4)c4ccccc34)cccc12)NC(=O)C1(C(F)(F)F)CCN(CC(F)F)CC1 [Compound 915],< 10 nM,> 1000 nM,,
O=C(O)[C@H](Cc1cccc2c(-c3ncc(CN4CCC[C@@H](F)C4)c4ccccc34)cccc12)NC(=O)C1(C(F)(F)F)CCN(CC(F)F)CC1 [Compound 860],< 10 nM,> 1000 nM,,
CN1CCC(Cc2ccc3ccnc(-c4cccc5c(C[C@H](NC(=O)C6(C(F)(F)F)CCN(CC(F)(F)F)CC6)C(=O)O)cccc45)c3c2)CC1 [Compound 990],< 10 nM,> 1000 nM,,
COc1ccc(CN2CCC(F)(F)CC2)c(OC)c1-c1cccc2c(C[C@H](NC(=O)C3(C(F)(F)F)CCN([C@H]4COC[C@H]4F)CC3)C(=O)O)cccc12 [Compound 573],,,< 10 nM,> 1000 nM
CCOCc1cc(OC)c(-c2cccc3c(C[C@H](NC(=O)C4(C(F)(F)F)CCN(C5COC5)CC4)C(=O)O)cccc23)c(OC)c1 [Compound 498],,,< 10 nM,100 to 1000 nM
CCOCCN1CCC(C(=O)N[C@@H](Cc2cccc3c(-c4c(C(F)(F)F)c5ccccc5n(C)c4=O)cccc23)C(=O)O)(C(F)(F)F)CC1 [Compound 503],,,10 to 100 nM,100 to 1000 nM
CC(C)c1cccc(F)c1C(=O)N[C@@H](Cc1cccc2c(-c3c(C(F)(F)F)c4cc(CN5CCCCC5)ccc4n(C)c3=O)cccc12)C(=O)O [Compound 1029],< 10 nM,10 to 100 nM,,
Cn1c(=O)c(-c2cccc3c(C[C@H](NC(=O)C4(C(F)(F)F)CCN(CC(F)(F)F)CC4)C(=O)O)cccc23)c(C(F)(F)F)c2cc(CN3CCC(F)(F)CC3)ccc21 [Compound 835],10 to 100 nM,100 to 1000 nM,,
COc1ccc(CN2CCC(F)(F)CC2)c(OC)c1-c1cccc2c(C[C@H](NC(=O)c3c(F)cncc3Cl)C(=O)O)cccc12 [Compound 614],,,10 to 100 nM,100 to 1000 nM
COc1cccc(CN2CCCC(F)C2)c1-c1cccc2c(C[C@H](NC(=O)c3c(C)cccc3F)C(=O)O)cccc12 (stereo partly shown) [Compound 1015],< 10 nM,100 to 1000 nM,,
COc1cc(CN2CCCC2)cc(OC)c1-c1cccc2c(C[C@H](NC(=O)C3(C(F)(F)F)CCN(CC(F)(F)F)CC3)C(=O)O)cccc12 [Compound 796],< 10 nM,100 to 1000 nM,,
O=C(O)[C@H](Cc1cccc2c(-c3nccc4c(CN5CCC6(CCCCC6)CC5)cccc34)cccc12)NC(=O)C1(C(F)(F)F)CCN(CC(F)(F)F)CC1 [Compound 661],,,10 to 100 nM,> 1000 nM
CCC1(C(=O)N[C@@H](Cc2cccc3c(-c4ncc(CN5CCCCC5)c5ccccc45)cccc23)C(=O)O)CCN(CC(F)(F)F)CC1 [Compound 676],,,< 10 nM,> 1000 nM
O=C(O)[C@H](Cc1cccc2c(-c3ncc(CN4CCOCC45CC5)c4ccccc34)cccc12)NC(=O)C1(C(F)(F)F)CCN(CC(F)(F)F)CC1 [Compound 870],< 10 nM,> 1000 nM,,
COc1ccc2ccncc2c1-c1cccc2c(C[C@H](NC(=O)C3(C(F)(F)F)CCN(CC(F)(F)F)CC3)C(=O)O)cccc12 [Compound 523],,,< 10 nM,100 to 1000 nM
CN(C)Cc1cccc2c(-c3cccc4c(C[C@H](NC(=O)C5(C(F)(F)F)CCN([C@@H]6CCOC6)CC5)C(=O)O)cccc34)nccc12 [Compound 592],,,< 10 nM,> 1000 nM
COc1ccc(CN2CCCCC2)cc1-c1cccc2c(C[C@H](NC(=O)C3(C(F)(F)F)CCN(CC(F)(F)F)CC3)C(=O)O)cccc12 [Compound 575],,,< 10 nM,100 to 1000 nM

# The next lines start with the values.
IC50 (α4β7 integrin; [1]),IC50 (α4β1 integrin; [2]),IC50 (α4β7 integrin; [3]),IC50 (α4β1 integrin; [4]),SMILES
,,< 10 nM,100 to 1000 nM,CN(C)Cc1ccc2c(C(F)(F)F)c(-c3cccc4c(C[C@H](NC(=O)C5(C(F)(F)F)CCN(CC(F)(F)F)CC5)C(=O)O)cccc34)c(=O)n(C)c2c1 [Compound 476]
100 to 1000 nM,> 1000 nM,,,COc1ccc(CN2CCC(F)(F)CC2)c(C(F)(F)F)c1-c1cccc2c(C[C@H](NC(=O)c3c(C)cccc3F)C(=O)O)cccc12 [Compound 823]
10 to 100 nM,> 1000 nM,,,COc1cccc(CCCN2CCC(F)(F)CC2)c1-c1cccc2c(C[C@H](NC(=O)C3(C(F)(F)F)CCN(CC(F)(F)F)CC3)C(=O)O)cccc12 [Compound 742]
< 10 nM,100 to 1000 nM,,,CN1CCCC(c2cnc(-c3cccc4c(C[C@H](NC(=O)C5(C(F)(F)F)CCN(CC(F)(F)F)CC5)C(=O)O)cccc34)c(C(F)(F)F)c2)C1 (stereo partly shown) [Compound 758]
< 10 nM,100 to 1000 nM,,,COc1ccc(CN2CCCCC2)c(OC)c1-c1cccc2c(C[C@H](NC(=O)C3(C(F)(F)F)CCN(CC(F)(F)F)CC3)C(=O)O)cccc12 [Compound 784]
,,10 to 100 nM,> 1000 nM,COc1ccc(CN2CCC(F)(F)CC2)c(OC)c1-c1cccc2c(C[C@H](NC(=O)c3c(F)ccnc3C)C(=O)O)cccc12 [Compound 615]
,,< 10 nM,100 to 1000 nM,COc1ccc(CN2CCC3(CC2)CC3)c(OC)c1-c1cccc2c(C[C@H](NC(=O)c3c(C)cccc3F)C(=O)O)cccc12 [Compound 623]
< 10 nM,100 to 1000 nM,,,Cc1cccc(F)c1C(=O)N[C@@H](Cc1cccc2c(-c3c(C(F)(F)F)c4cc(CCCN(C)C)ccc4n(C)c3=O)cccc12)C(=O)O [Compound 1053]
,,< 10 nM,100 to 1000 nM,CC1OCC1N1CCC(C(=O)N[C@@H](Cc2cccc3c(-c4c(C(F)(F)F)c5ccccc5n(C)c4=O)cccc23)C(=O)O)(C(F)(F)F)CC1 (stereo partly shown) [Compound 510]
,,< 10 nM,10 to 100 nM,COc1ccc(CN2CCCC2C)c(OC)c1-c1cccc2c(C[C@H](NC(=O)c3c(C)cccc3F)C(=O)O)cccc12 (stereo partly shown) [Compound 633]
,,< 10 nM,> 1000 nM,COc1ccc2cccnc2c1-c1cccc2c(C[C@H](NC(=O)C3(C(F)(F)F)CCN(CC(F)(F)F)CC3)C(=O)O)cccc12 [Compound 472]
< 10 nM,100 to 1000 nM,,,COc1cccc(CCN2CCC(C)C(F)(F)CC2)c1-c1cccc2c(C[C@H](NC(=O)C3(C(F)(F)F)CCN(CC(F)(F)F)CC3)C(=O)O)cccc12 (stereo partly shown) [Compound 972]
< 10 nM,100 to 1000 nM,,,O=C(O)[C@H](Cc1cccc2c(-c3ncc(CN4CCC(F)(F)CC4)cc3C3CC3)cccc12)NC(=O)C1(C(F)(F)F)CCN(CC(F)F)CC1 [Compound 951]

# — patent US20250313535A1, “ALPHA 4 BETA 7 INTEGRIN MODULATORS AND USES THEREOF” (DICE MOLECULES SV, INC., priority 2022, published 2025)
